pKi: −log10 of the molar value.
Assays:
[1] = target: T1, vanilloid receptor (VR1), human VR1 gene (Homo sapiens, UniProt Q8NER1); assay: FLIPR Ca2+ influx assay on CHO K1 cells transfected with the VR1 gene, capsaicin stimulus (Pharmacological method II); format: cell-based; conditions: human, Ki by Cheng-Prusoff, ne = no effect, no response observed
T1 construct: expressed in transfected cells; host or cells: CHO K1 cells (ECACC), stably transfected
Experimental: In addition, compounds according to the invention of the general formulae I, Ia, Ib, Ic, and Id, may be preferred which in the FLIPR assay with CHO K1 cells, which have been transfected with the human VR1 gene, in a concentration of less than 2000 nM, preferably of less than 1000 nM, particularly preferably of less than 300 nM, very particularly preferably of less than 100 nM, still more preferably of less than 75 nM, further preferably of less than 50 nM and most preferably of less than 10 nM, bring about a 50 percent displacement of capsaicin, which is present in a concentration of 100 nM. In this FLIPR assay, the influx of Ca^2+ is quantified with the assistance of a Ca^2+-sensitive dye (type Fluo-4, Molecular Probes Europe BV, Leiden, Netherlands) in a Fluorescent Imaging Plate Reader (FLIPR, Molecular Devices, Sunnyvale, USA) as described below.
II. Functional Investigations on Vanilloid Receptor (VR1)
The agonistic or antagonistic action of the substances to be investigated on the vanilloid receptor (VR1) may also be determined with the following assay. According to this assay, the influx of Ca^2+ through the channel is quantified with the assistance of a Ca^2+-sensitive dye (type Fluo-4, Molecular Probes Europe BV, Leiden, Netherlands) in a Fluorescent Imaging Plate Reader (FLIPR, Molecular Devices, Sunnyvale, USA).
Chinese hamster ovary cells (CHO K1 cells, European Collection of Cell Cultures (ECACC), Great Britain) are stably transfected with the VR1 gene. For functional investigations, these cells are plated out onto poly-D-lysine-coated, black 96-hole plates with a clear base (BD Biosciences, Heidelberg, Germany) at a density of 25,000 cells/hole. The cells are incubated overnight at 37° C. and 5% CO2 in a culture medium (Ham's Nutrient Mixture F12, 10 vol. % FCS (foetal calf serum), 18 μg/mL L-proline). On the following day, the cells are incubated with Fluo-4 (Fluo-4 2 μM, Pluronic F127 0.01 vol. %, Molecular Probes in HBSS (Hank's buffered saline solution), Gibco Invitrogen GmbH, Karlsruhe, Germany) for 30 minutes at 37° C. The plates are then washed 3 times with HBSS buffer and, after a further 15 minutes' incubation at room temperature, used for Ca^2+ measurement in the FLIPR. Ca^2+-dependent fluorescence is here measured before and after the addition of the substances to be investigated (wavelength λex=488 nm, λem=540 nm).
Quantification proceeds by measuring the highest fluorescence intensity (FC, fluorescence counts) over time.
The FLIPR protocol consists of 2 additions of substance. The substances to be tested (10 μM) are firstly pipetted onto the cells and Ca^2+ influx is compared with the control (capsaicin 10 μM) (% activation relative to the Ca^2+ signal after addition of 10 μM of capsaicin). After 5 minutes' incubation, 100 nM of capsaicin are added and the influx of Ca^2+ is likewise determined.
The percentage inhibition in comparison with the maximum achievable inhibition with 10 μM capsaicin is calculated.
On the basis of the percentage displacement by different concentrations of the compounds to be tested of the general formula I, IC50 inhibition concentrations which bring about 50% displacement of capsaicin were calculated. Ki values for the test substances were obtained by conversion using the Cheng-Prusoff equation (Cheng, Prusoff; Biochem. Pharmacol. 22, 3099-3108, 1973).

[2] = target: T2, vanilloid receptor 1 (VR1/TRPV1) of the rat species (Rattus norvegicus, UniProt O35433); assay: FLIPR Ca2+ influx assay on rat dorsal root ganglia cells, capsaicin stimulus (Pharmacological method I); format: cell-based; conditions: Ki by Cheng-Prusoff
T2 construct: The spinal column is removed from decapitated rats; endogenous in cells; host or cells: primary cells dissociated from rat dorsal root ganglia, cultured 2-3 days with NGF
T2 sequence (O35433 whole entry): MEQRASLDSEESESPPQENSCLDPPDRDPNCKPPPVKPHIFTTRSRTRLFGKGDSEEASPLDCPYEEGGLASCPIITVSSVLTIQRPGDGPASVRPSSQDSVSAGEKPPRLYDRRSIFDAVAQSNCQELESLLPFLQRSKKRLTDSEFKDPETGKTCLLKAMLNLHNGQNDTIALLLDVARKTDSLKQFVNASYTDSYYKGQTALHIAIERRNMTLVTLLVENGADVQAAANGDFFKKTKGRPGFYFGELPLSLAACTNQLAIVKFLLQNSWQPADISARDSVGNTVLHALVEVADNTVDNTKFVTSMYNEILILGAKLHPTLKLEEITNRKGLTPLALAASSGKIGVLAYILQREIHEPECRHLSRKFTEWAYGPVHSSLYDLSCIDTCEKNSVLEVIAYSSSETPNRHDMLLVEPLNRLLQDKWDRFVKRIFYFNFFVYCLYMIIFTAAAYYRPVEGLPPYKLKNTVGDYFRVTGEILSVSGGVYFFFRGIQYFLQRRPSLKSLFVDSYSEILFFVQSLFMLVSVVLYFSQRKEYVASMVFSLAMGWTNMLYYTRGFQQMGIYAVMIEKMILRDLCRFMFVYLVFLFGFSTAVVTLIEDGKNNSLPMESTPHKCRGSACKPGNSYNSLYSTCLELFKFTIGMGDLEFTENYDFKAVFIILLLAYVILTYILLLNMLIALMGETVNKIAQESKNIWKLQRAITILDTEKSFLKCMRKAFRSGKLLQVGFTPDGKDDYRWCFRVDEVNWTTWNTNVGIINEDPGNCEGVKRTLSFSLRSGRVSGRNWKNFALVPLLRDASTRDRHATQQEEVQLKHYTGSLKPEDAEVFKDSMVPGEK
Text: I. Functional Investigation on Vanilloid Receptor 1 (VR1/TRPV1 Receptor)
The agonistic or antagonistic action of the substances to be investigated on the vanilloid receptor 1 (VR1/TRPV1) of the rat species may be determined with the following assay. According to this assay, the influx of Ca^2+ through the receptor channel is quantified with the assistance of a Ca^2+-sensitive dye (type Fluo-4, Molecular Probes Europe BV, Leiden, Netherlands) in a Fluorescent Imaging Plate Reader (FLIPR, Molecular Devices, Sunnyvale, USA).
Complete medium: 50 mL HAMS F12 Nutrient Mixture (Gibco Invitrogen GmbH, Karlsruhe, Germany) with 10 vol. % FCS (foetal calf serum, Gibco Invitrogen GmbH, Karlsruhe, Germany, heat-inactivated); 2 mM L-glutamine (Sigma, Munich, Germany); 1 wt. % AA solution (antibiotic/antimycotic solution, PAA, Pasching, Austria) and 25 ng/ml NGF medium (2.5 S, Gibco Invitrogen GmbH, Karlsruhe, Germany)
Cell culture plate: poly-D-lysine-coated, black 96-hole plates with clear base (96 well black/clear plate, BD Biosciences, Heidelberg, Germany) are additionally coated with laminin (Gibco Invitrogen GmbH, Karlsruhe, Germany), by diluting laminin to a concentration of 100 μg/mL with PBS (Ca—Mg-free PBS, Gibco Invitrogen GmbH, Karlsruhe, Germany). Aliquots with a concentration of 100 μg/mL of laminin are taken and stored at −20° C. The aliquots are diluted with PBS in the ratio of 1:10 to 10 μg/mL of laminin and 50 μL of the solution is pipetted into each well of the cell culture plate. The cell culture plates are incubated for at least two hours at 37° C., the supernatant solution is aspirated and the wells are each washed twice with PBS. […]
The spinal column is removed from decapitated rats and this is placed directly in cold HBSS buffer (Hank's buffered saline solution, Gibco Invitrogen GmbH, Karlsruhe, Germany), i.e. located in an ice bath, combined with 1 vol. % (percent by volume) of an AA solution (antibiotic/antimycotic solution, PAA, Pasching, Austria). […] The resultant pellet is in each case redissolved in 250 μL of complete medium and the cell count is determined. […]

[3] = target: VR1/TRPV1 receptor (Homo sapiens, UniProt Q8NER1); assay: Inhibition of human VR1/TRPV1 following pH-stimulus; format: cell-based; conditions: ne = no effect, no response observed
VR1/TRPV1 receptor, sequence (Q8NER1 whole entry): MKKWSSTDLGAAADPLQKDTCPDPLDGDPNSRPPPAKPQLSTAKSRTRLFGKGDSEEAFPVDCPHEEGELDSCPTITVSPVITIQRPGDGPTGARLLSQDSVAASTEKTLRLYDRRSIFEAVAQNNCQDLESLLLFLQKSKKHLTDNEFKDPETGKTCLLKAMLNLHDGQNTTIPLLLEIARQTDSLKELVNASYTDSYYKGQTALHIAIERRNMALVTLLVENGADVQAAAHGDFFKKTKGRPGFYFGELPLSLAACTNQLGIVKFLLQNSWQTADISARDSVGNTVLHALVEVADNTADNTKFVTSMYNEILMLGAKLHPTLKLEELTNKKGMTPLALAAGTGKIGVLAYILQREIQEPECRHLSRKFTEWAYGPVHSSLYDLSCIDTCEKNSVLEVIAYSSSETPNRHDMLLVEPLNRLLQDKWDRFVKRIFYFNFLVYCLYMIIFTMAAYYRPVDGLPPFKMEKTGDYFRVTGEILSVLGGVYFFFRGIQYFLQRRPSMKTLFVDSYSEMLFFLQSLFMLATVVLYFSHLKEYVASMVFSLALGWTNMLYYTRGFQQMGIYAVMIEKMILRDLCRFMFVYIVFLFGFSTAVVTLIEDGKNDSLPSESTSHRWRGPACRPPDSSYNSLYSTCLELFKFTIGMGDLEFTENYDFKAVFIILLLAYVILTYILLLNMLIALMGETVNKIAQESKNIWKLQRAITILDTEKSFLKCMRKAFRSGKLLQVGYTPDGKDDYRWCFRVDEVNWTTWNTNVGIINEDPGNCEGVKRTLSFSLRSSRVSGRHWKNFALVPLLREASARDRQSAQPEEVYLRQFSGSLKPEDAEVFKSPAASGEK

[4] = test system: male mice (NMRI); assay: Formaldehyde test in mice; format: in vivo; conditions: 0.3 per os (dose unit not given), second phase
Experimental: III. b. Formaldehyde Test in Mice
The investigation for determining the antinociceptive action of the compounds according to the invention is performed using the formaldehyde test on male mice (NMRI, 20 to 30 g body weight, Iffa, Credo, Belgium).
In the formaldehyde test, according to D. Dubuisson et al., Pain 1977, 4, 161-174 a distinction is drawn between the first (early) phase (0 to 15 minutes after the formaldehyde injection) and the second (late) phase (15 to 60 minutes after the formaldehyde injection). […]
Then, the nociceptive behaviour of the animals is observed and recorded continuously for an investigation period of three minutes in the second (late) phase of the formaldehyde test (21 to 24 minutes after the formaldehyde injection). Quantification of the pain behaviour proceeds by summation of the seconds in which the animals licked and bit the relevant paw during the investigation period.
The comparison is made in each case with control animals, which, instead of compounds according to the invention, received vehicle (0.9% aqueous sodium chloride soln.) before administration of the formaldehyde. On the basis of the quantification of the pain behaviour, the substance effect in the formaldehyde test is determined in percent as a change compared with the corresponding control. […]

T1 sequence (Q8NER1 whole entry): as above

| pKi [1] | pKi [2] | IC50 (Human) following pH-stimulus [3] | SMILES | Inhibition Formaldehyde test [4] |
| --- | --- | --- | --- | --- |
| 7.56 | 7.22 | ne | CC1CCN(c2nc(C(F)(F)F)ccc2CNC(=O)Cc2ccc3c(c2)OCCO3)CC1 [Example 58, 2-(2,3-dihydrobenzo[b][1,4]dioxin-6-yl)-N-((2-(4-methylpiperidin-1-yl)-6-(trifluoromethyl)pyridin-3-yl)methyl)acetamide] |  |
| 8.46 | 8.24 | ne | O=C(Cc1ccc2c(c1)OCCO2)NCc1ccc(C(F)(F)F)nc1SC1CCCCC1 [Example 59, N-((2-(cyclohexylthio)-6-(trifluoromethyl)pyridin-3-yl)methyl)-2-(2,3-dihydrobenzo[b][1,4]dioxin-6-yl)acetamide] |  |
| 8.15 |  | Ne | CC1CCN(c2nc(C(F)(F)F)ccc2CNC(=O)C(C)c2ccc3[nH]cnc3c2)CC1 (stereo not drawn) [Example 13, 2-(1H-benzoimidazol-5-yl)-N-(4-methyl-6′-trifluoromethyl-3,4,5,6-tetrahydro-2H-[1,2′]bipyridinyl-3′-ylmethyl)-propionamide] | 0.3 per os 25% |
| 7.59 | 7.34 | ne | CC1CCN(c2nc(C(F)(F)F)ccc2CNC(=O)C(C)c2ccc3c(c2)OCO3)CC1 (stereo not drawn) [Example 60, 2-(benzo[d][1,3]dioxol-5-yl)-N-((2-(4-methylpiperidin-1-yl)-6-(trifluoromethyl)pyridin-3-yl)methyl)propanamide] |  |

| SMILES | pKi [1] | pKi [2] | IC50 (Human) following pH-stimulus [3] | Inhibition Formaldehyde test [4] |
| --- | --- | --- | --- | --- |
| CCCCOc1nc(C(C)(C)C)ccc1CNC(=O)C(C)c1ccc2[nH]cnc2c1 (stereo not drawn) [Example 23, 2-(1H-benzoimidazol-5-yl)-N-(2-butoxy-6-tert.-butyl-pyridin-3-ylmethyl)-propionamide] | 7.82 |  | Ne | 0.3 per os 13% |

From patent US8084484B2, “Vanilloid receptor ligands, pharmaceutical compositions containing them, process for making them, and use thereof for treating pain and other conditions” (Gruenenthal GmbH, priority 2007, dated 2011)
